In patent publication US11691990B2, “Salts of compounds and crystals thereof” (Eisai R&D Management Co., Ltd., priority 2018, dated 2023):

What was measured:
CT26 tumor cells = experiment: CT26 dual tumor model (mouse colon cancer model); assay type: in vivo; conditions: I.T. single dose, study B
Description: For study A, treatment was started 5 days (1.25 mg/kg, 2.5 mg/kg and 5 mg/kg) after the tumor implantation, when the average tumors reached approximately 100 mm^3. For study B, treatment was started 8 days (0.6 mg/kg, and 10 mg/kg) after the tumor implantation, when the average tumors reached approximately 120 mm^3. The treatment scheme is described in Table 5 and Table 6.
All the mice in the study have two subcutaneous CT26 tumors. The “treated tumor” indicates the tumor with compound direct administration, while “untreated tumor” indicates the tumor without direct compound administration. Tumor volume was followed throughout the experiment. Tumor volume is measured two times weekly after the start of treatment. Tumor burden is calculated from caliper measurements by the formula for the volume of a prolate ellipsoid (L×W^2)/2 where L and W are the respective orthogonal length and width measurements (mm).

primary human PBMC = experiment: Ex vivo human PBMC stimulation assay, IFNβ protein; assay type: cell-based; conditions: 24 hours, average of five donors
Description: Human blood from 5 healthy donors was collected using 10.0 mL BD Vacutainer Sodium heparin tubes (cat #367874). Peripheral blood mononuclear cell (PBMC) isolation was done using SIGMA ACCUSPIN 50 ml Tubes (cat #A2055) and sigma ACCUSPIN System-HISTOPAQUE-1077 (cat #A7054) using protocol provided by manufacturer. […] PBMC were counted and finally suspended at 1×10e6/ml in RPMI (corning cat #10-041-CV) supplemented with 10% fetal bovine serum (FBS) (Gibco cat #20140.79). 1 ml of cell (1×10e6) were transferred into Falcon 5 mL Round Bottom Polypropylene Test Tube (cat #352063) and stimulated with different concentrations ([…]) for 24 hours in 5% CO2 incubator at 37° C. After 24 hours of incubation the tubes were centrifuged at 1400 rpm for 5 minutes and supernatants were harvested. Supernatant were stored in −80° C. for subsequent IFN measurement. IFNβ measurement was done using Human IFN-β Base Kit (Meso Scale Diagnostics cat #K151ADA) and protocol provided by manufacturer was used. IFN-beta estimation was done by reading assay plate at MESO SECTOR Imager 2400 and using MSD Discovery Workbench 4.0 program. After 24 hours IFNβ protein was analyzed. […] Results shown in Table 3 reflect an average of measurements conducted using five different donors.

## O=[P@]1(S)OC[C@H]2O[C@@H]3[C@H](F)[C@@H]2O[P@](=O)(S)OC[C@H]2O[C@H]([C@H](F)[C@@H]2O1)n1cnc2c(ncnc21)NC/C=C/CNc1ncnc2c1ncn23 [Compound (1a), (1R,3R,15E,28R,29R,30R,31R,34R,36R,39S,41R)-29,41-Difluoro-34,39-bis(sulfanyl)-2,33,35,38,40,42-hexaoxa-4,6,9,11,13,18,20,22,25,27-decaaza-34λ^5,39λ^5-diphosphaoctacyclo[28.6.4.1^3,36.1^28,31.0^4,8.0^7,12.0^19,24.0^23,27]dotetraconta-5,7,9,11,15,19,21,23,25-nonaene-34,39-dione]
CT26 tumor cells; 0.6 mg/kg
  cure rate, treated tumors: 20%
CT26 tumor cells; 10 mg/kg
  animals cured of treated tumor at the end of study: 100%
  curative effects, untreated tumors: 80%
Primary human PBMC; 0.1 μM
  IFNβ: 21.3 ± 17.8 pg/mL
Primary human PBMC; 1 μM
  IFNβ: 227.5 ± 62.4 pg/mL
Primary human PBMC; 10 μM
  IFNβ: 540.2 ± 215.0 pg/mL
